Assay results taken from patent US12052991B2, “Substituted pyridinyloxybenzenes and salts thereof and use thereof as herbicidal agents” (Bayer Aktiengesellschaft, priority 2018, dated 2024).

What was measured:
Format in all cases: in vivo
Agrostis tenuis (AGSTE) = assay: Herbicidal early post-emergence action (Table A1); conditions: 1900 g/ha; scored visually 9 to 12 days after treatment; 100% = plants have died, 0% = like control plants
Method: (§1) Seeds of monocotyledonous and dicotyledonous weed plants were placed in 96-well microtiter plates in quartz sand and grown in a climatized chamber under controlled growth conditions. 5 to 7 days after sowing, the test plants were treated at the cotyledon stage. The compounds according to the invention, formulated in the form of emulsion concentrates (EC), were applied with a water application rate of the equivalent of 2200 liters per hectare. After the test plants had been left to stand in the climatized chamber for 9 to 12 days under optimum growth conditions, the effect of the preparations was scored visually in comparison to untreated controls. For example, 100% activity=the plants have died, 0% activity=like control plants. Tables A1 to A8 below show the effects of selected compounds of the general formula (I) according to Table 1 on various harmful plants and an application rate corresponding to 1900 g/ha, which were obtained by the experimental procedure mentioned above.

Poa annua (POAAN) [1] = assay: Herbicidal early post-emergence action (Table A3); conditions: 1900 g/ha; scored visually 9 to 12 days after treatment; 100% = plants have died, 0% = like control plants
Method: as §1

[2] = tested on: harmful plants AGSTE, DIPTE, LOLPE, MATCH, POAAN, SETVI, STEME and VERPE; assay: Herbicidal early post-emergence action, summary of Tables A1-A8; conditions: application rate of 1900 g of active ingredient per hectare; summary in words
Method: as §1, with “plants.” for “plants. Tables A1 to A8 below show the effects of selected compounds of the general formula (I) according to Table 1 on various harmful plants and an application rate corresponding to 1900 g/ha, which were obtained by the experimental procedure mentioned above.”
Tables A1 to A8 below show the effects of selected compounds of the general formula (I) according to Table 1 on various harmful plants and an application rate corresponding to 1900 g/ha, which were obtained by the experimental procedure mentioned above.
As the results of Tables A1-A8 show, compounds no.

[3] = tested on: Matricaria inodora (MATIN); assay: Herbicidal pre-emergence action, test C (Table C7); conditions: visual scoring after about 3 weeks, 100% = plants have died, 0% = like control plants
In short: (§2)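 In this test, soil-covered weed seeds in sandy loam received a surface application of compound at 1280 or 320 g/ha. Effects were rated visually as percentages compared with untreated controls roughly 3 weeks later.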

Veronica persica (VERPE) [4] = assay: Herbicidal pre-emergence action, test C (Table C12); conditions: dosage 1280 g/ha, visual scoring vs untreated controls
In short: as §2

Bassia scoparia (KCHSC) [5] = assay: Herbicidal pre-emergence action, test C (Table C11); conditions: dosage 1280 g/ha, visual scoring vs untreated controls
In short: as §2

[6] = tested on: Abutilon theophrasti (ABUTH); assay: Herbicidal post-emergence action (Table B5); conditions: rated visually after about 3 weeks, 100% = plants have died, 0% = like control plants
In short: (§3)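 Visual percent activity relative to untreated controls (100% = plants dead, 0% = like controls) was scored about 3 weeks after treatment. Plants had been sprayed at the one-leaf stage with formulated compound at 1280 or 320 g/ha in 600 L/ha water containing 0.5% additive.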

Poa annua (POAAN) [7] = assay: Herbicidal post-emergence action (Table B3); conditions: rated visually after about 3 weeks, 100% = plants have died, 0% = like control plants
In short: as §3

Stellaria media (STEME) [8] = assay: Herbicidal pre-emergence action, test C (Table C8); conditions: visual scoring after about 3 weeks, 100% = plants have died, 0% = like control plants
In short: as §2

[9] = tested on: harmful plants ABUTH, AMARE, ECHCG, LOLRI, MATIN, POAAN, SETVI, STEME, ALOMY, DIGSA, KCHSC and VERPE; assay: Herbicidal post-emergence action, summary of Tables B1-B12; conditions: application rate of 1280 or 320 g of active ingredient per hectare; summary in words
In short: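 Greenhouse weeds in sandy loam treated post-emergence at the one-leaf stage, 2–3 weeks after sowing, with WP or EC formulations sprayed with 0.5% additive at 600 L/ha water, 1280 or 320 g/ha. Damage rated visually after about 3 weeks versus untreated controls (0% = like control, 100% = dead).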

[10] = tested on: Amaranthus retroflexus (AMARE); assay: Herbicidal post-emergence action (Table B6); conditions: visual rating about 3 weeks after treatment, 100% = plants have died, 0% = like control plants
In short: as §3

Bassia scoparia (KCHSC) [11] = assay: Herbicidal post-emergence action (Table B11); conditions: visual rating about 3 weeks after treatment, 100% = plants have died, 0% = like control plants
In short: as §3

[12] = tested on: harmful plants ABUTH, AMARE, ECHCG, LOLRI, MATIN, POAAN, SETVI, STEME, ALOMY, DIGSA, KCHSC and VERPE; assay: Herbicidal pre-emergence action (test C), summary of Tables C1-C12; conditions: application rate of 1280 or 320 g of active ingredient per hectare; summary in words
In short: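 Pre-emergence pot test in sandy loam: WP or EC formulations were sprayed onto the covering soil with 0.5% additive at 600 L/ha water, at 1280 or 320 g/ha. Plants were kept in the greenhouse, and activity was rated visually about 3 weeks later as % versus untreated controls (100% = dead).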

Poa annua (POAAN) [13] = assay: Herbicidal pre-emergence action, test C (Table C3); conditions: visual scoring after about 3 weeks, 100% = plants have died, 0% = like control plants
In short: as §2

[14] = tested on: Digitaria sanguinalis (DIGSA); assay: Herbicidal post-emergence action (Table B10); conditions: dosage 1280 g/ha; visual rating about 3 weeks after treatment; 100% = plants have died, 0% = like control plants
In short: as §3

Veronica persica (VERPE) [15] = assay: Herbicidal post-emergence action (Table B12); conditions: visual rating about 3 weeks after treatment, 100% = plants have died, 0% = like control plants
In short: as §3

[16] = tested on: Alopecurus myosuroides (ALOMY); assay: Herbicidal post-emergence action (Table B9); conditions: rated visually after about 3 weeks, 100% = plants have died, 0% = like control plants
In short: as §3

Stellaria media (STEME) [17] = assay: Herbicidal post-emergence action (Table B8); conditions: visual rating about 3 weeks after treatment, 100% = plants have died, 0% = like control plants
In short: as §3

Setaria viridis (SETVI) = assay: Herbicidal pre-emergence action, test C (Table C4); conditions: visual scoring after about 3 weeks, 100% = plants have died, 0% = like control plants
In short: as §2

[18] = tested on: Digitaria sanguinalis (DIGSA); assay: Herbicidal pre-emergence action, test C (Table C10); conditions: visual scoring after about 3 weeks, 100% = plants have died, 0% = like control plants
In short: as §2

[19] = tested on: Alopecurus myosuroides (ALOMY); assay: Herbicidal pre-emergence action, test C (Table C9); conditions: dosage 1280 g/ha; visual scoring after about 3 weeks; 100% = plants have died, 0% = like control plants
In short: as §2

[20] = tested on: Abutilon theophrasti (ABUTH); assay: Herbicidal pre-emergence action, test C (Table C5); conditions: dosage 1280 g/ha; visual scoring after about 3 weeks; 100% = plants have died, 0% = like control plants
In short: as §2

[21] = tested on: Amaranthus retroflexus (AMARE); assay: Herbicidal pre-emergence action, test C (Table C6); conditions: visual scoring after about 3 weeks, 100% = plants have died, 0% = like control plants
In short: as §2

[22] = tested on: Matricaria inodora (MATIN); assay: Herbicidal post-emergence action (Table B7); conditions: rated visually after about 3 weeks, 100% = plants have died, 0% = like control plants
Method: Seeds of mono- and dicotyledonous weed plants were placed in plastic pots in sandy loam soil (doubly sown with in each case one species of mono- or dicotyledonous weed plants per pot), covered with soil and cultivated in a greenhouse under controlled growth conditions. 2 to 3 weeks after sowing, the test plants were treated at the one-leaf stage. The compounds of the invention, formulated in the form of wettable powders (WP) or as emulsion concentrates (EC), were applied onto the green parts of the plants as aqueous suspension or emulsion with addition of 0.5% additive at a water application rate of 600 liters per hectare (converted). After the test plants had been kept in the greenhouse under optimum growth conditions for about 3 weeks, the activity of the preparations was rated visually in comparison to untreated controls. For example, 100% activity=the plants have died, 0% activity=like control plants. Tables B1 to B12 below show the effects of selected compounds of the general formula (I) according to Table 1 on various harmful plants and an application rate corresponding to 1280 or 320 g/ha, which were obtained by the experimental procedure mentioned above.

Compound: FC(F)(F)c1cncc(-c2ccccc2Oc2ccc(Cl)cn2)c1 [Example 1-73]
- Early post-emergence effect against Agrostis tenuis (AGSTE) (Agrostis tenuis (AGSTE)): 100%
- Early post-emergence effect against Poa annua (POAAN) (Poa annua (POAAN) [1]): 80%
- herbicidal activity against the harmful plants of Tables A1-A8 in early post-emergence treatment [2]: very good herbicidal activity

Compound: COc1ccc(-c2cc(C(F)F)no2)c(Oc2ncc(Cl)cc2F)c1 [Example 1-37]
- Early post-emergence effect against Poa annua (POAAN) (Poa annua (POAAN) [1]): 80%
- herbicidal activity against the harmful plants of Tables A1-A8 in early post-emergence treatment [2]: very good herbicidal activity

Compound: Cc1cc(F)c(-c2cc(C(F)F)no2)c(Oc2ncc(Cl)cc2F)c1 [Example 1-89]
- Pre-emergence action against Matricaria inodora (MATIN) ([3]; dosage 320 g/ha): 90%
- Pre-emergence action against Matricaria inodora (MATIN) ([3]; dosage 1280 g/ha): 90%
- Pre-emergence action against Veronica persica (VERPE) (Veronica persica (VERPE) [4]): 90%
- Pre-emergence action against Bassia scoparia (KCHSC) (Bassia scoparia (KCHSC) [5]): 90%
- Post-emergence action against Abutilon theophrasti (ABUTH) ([6]; 320 g/ha): 100%
- Post-emergence action against Abutilon theophrasti (ABUTH) ([6]; 1280 g/ha): 100%
- Post-emergence action against Poa annua (POAAN) (Poa annua (POAAN) [7]; 320 g/ha): 100%
- Post-emergence action against Poa annua (POAAN) (Poa annua (POAAN) [7]; 1280 g/ha): 100%
- Pre-emergence action against Stellaria media (STEME) (Stellaria media (STEME) [8]; dosage 320 g/ha): 90%
- Pre-emergence action against Stellaria media (STEME) (Stellaria media (STEME) [8]; dosage 1280 g/ha): 90%
- herbicidal activity against the harmful plants of Tables B1-B12 in post-emergence treatment [9]: very good herbicidal activity
- Post-emergence action against Amaranthus retroflexus (AMARE) ([10]; dosage 320 g/ha): 100%
- Post-emergence action against Amaranthus retroflexus (AMARE) ([10]; dosage 1280 g/ha): 100%
- Post-emergence action against Bassia scoparia (KCHSC) (Bassia scoparia (KCHSC) [11]; dosage 320 g/ha): 90%
- Post-emergence action against Bassia scoparia (KCHSC) (Bassia scoparia (KCHSC) [11]; dosage 1280 g/ha): 100%
- herbicidal activity against the harmful plants of Tables C1-C12 in pre-emergence treatment [12]: very good herbicidal activity
- Pre-emergence action against Poa annua (POAAN) (Poa annua (POAAN) [13]; dosage 320 g/ha): 90%
- Pre-emergence action against Poa annua (POAAN) (Poa annua (POAAN) [13]; dosage 1280 g/ha): 100%
- Post-emergence action against Digitaria sanguinalis (DIGSA) [14]: 100%
- Post-emergence action against Veronica persica (VERPE) (Veronica persica (VERPE) [15]; dosage 320 g/ha): 100%
- Post-emergence action against Veronica persica (VERPE) (Veronica persica (VERPE) [15]; dosage 1280 g/ha): 100%
- Post-emergence action against Alopecurus myosuroides (ALOMY) ([16]; 320 g/ha): 100%
- Post-emergence action against Alopecurus myosuroides (ALOMY) ([16]; 1280 g/ha): 100%
- Post-emergence action against Stellaria media (STEME) (Stellaria media (STEME) [17]; dosage 320 g/ha): 100%
- Post-emergence action against Stellaria media (STEME) (Stellaria media (STEME) [17]; dosage 1280 g/ha): 100%
- Pre-emergence action against Setaria viridis (SETVI) (Setaria viridis (SETVI); dosage 320 g/ha): 100%
- Pre-emergence action against Setaria viridis (SETVI) (Setaria viridis (SETVI); dosage 1280 g/ha): 100%
- Pre-emergence action against Digitaria sanguinalis (DIGSA) ([18]; dosage 320 g/ha): 90%
- Pre-emergence action against Digitaria sanguinalis (DIGSA) ([18]; dosage 1280 g/ha): 100%
- Pre-emergence action against Alopecurus myosuroides (ALOMY) [19]: 100%
- Pre-emergence action against Abutilon theophrasti (ABUTH) [20]: 90%
- Pre-emergence action against Amaranthus retroflexus (AMARE) ([21]; dosage 320 g/ha): 100%
- Pre-emergence action against Amaranthus retroflexus (AMARE) ([21]; dosage 1280 g/ha): 100%
- Post-emergence action against Matricaria inodora (MATIN) ([22]; 320 g/ha): 100%
- Post-emergence action against Matricaria inodora (MATIN) ([22]; 1280 g/ha): 100%
